Read-outs that look alike come from different tables or passages of the source. Values belong to the compound of their own block, whether it stands above or below them.
Assays:
[1] = Population pharmacokinetics of oral AS and its metabolite DHA in pregnant and non-pregnant women (NONMEM parent-metabolite model); format: in vivo, human
Source text: Women presenting for prenatal care at the clinic were screened for study eligibility if they were between 18 and 40 years of age and at less than 22 weeks gestation, determined by last menstrual period. Women confirmed by ultrasound to be between 8 to 21 weeks gestation (inclusive) were invited to be participants in the study. Women were asked to return between 22 to 26 weeks gestation for screening and enrollment; women not enrolled at 22 to 26 weeks were screened again at 32 to 36 weeks gestation. A cohort of non-pregnant female controls was also enrolled. At the time of enrollment, both the pregnant and non-pregnant subjects had asymptomatic Plasmodium falciparum parasitaemia, with a parasite density between 200 and 300,000 parasite/μL, were HIV seronegative, and were without anaemia (haematocrit >30%) or other major medical problems (e.g. chronic hypertension, diabetes, etc.). Plasmodium falciparum parasite density was assessed though Giemsa staining of thick and thin blood films; slide-positive infections were later PCR-confirmed using DNA extracted from dried blood spots [8].
Blood sampling schedule and sample handling were uniformly applied for pregnant, postpartum, and control subjects. Blood samples were collected in pre-chilled tubes containing potassium oxalate/sodium fluoride. Following collection, tubes were placed on wet ice; within 5 minutes of collection, samples were centrifuged. Immediately following centrifugation, plasma was removed from the cells and transferred into cryovials. The plasma samples were transferred to liquid nitrogen until they could be frozen at or below -80°C in a laboratory freezer; samples were later shipped on dry ice to the Clinical Pharmacokinetics Laboratory at the College of Pharmacy, University of Iowa, where they were stored at -80°C until drug analysis was performed.
The reconstituted extracts were chromatographed isocratically. Mass spectroscopy in positive ion mode was used to detect and quantify the compounds.
Nonlinear mixed effects model building was conducted using NONMEM software version 7 (ICON Development Solutions, Ellicott City, MD) [10] implemented on a Windows XP operating system (Microsoft Corporation, Seattle, WA) with a G95 Fortran compiler (Free Software Foundation, Boston, MA). Monte Carlo importance sampling expectation maximization with interaction (IMP INTER) estimation method was used to fit models. Pdx-Pop 4.0 (ICON Development Solutions, Ellicott City, MD) and Xpose version 4.1.0 (Uppsala University, Uppsala, Sweden) [11] were used in processing NONMEM 7 output. Plots were generated with TIBCO Spotfire S+ version 8.1 (TIBCO Software Inc., Palo Alto, CA) and R version 2.10.0 (Free Software Foundation, Boston, MA).
Simultaneous models were implemented using ADVAN 5.

[2] = weak acid; cited from earlier work
[3] = free acid form of AS; cited from earlier work
[4] = design: method as in McGready et al 5; conditions: pregnant women (2nd or 3rd trimester), adjusted for median weight 50 kg, ref McGready et al 5, cited from earlier work
[5] = design: method as in Teja-Isavadharm et al 30; conditions: oral AS, non-pregnant patients with falciparum malaria, non-compartmental, range 0.70 - 2.70 L/kg; ref Teja-Isavadharm et al 30; cited from earlier work
[6] = design: method as in Newton et al 31; conditions: oral AS, acute falciparum malaria patients, 95% CI 1.02 - 1.64; ref Newton et al 31; cited from earlier work
[7] = interindividual variability, final model

IIV - V2/F, variance (%CV), estimate ([1]; female, human, in vivo): 0.604 (77.7)
IIV - V2/F, variance, bootstrap mean (95% CI) ([1]; female, human, in vivo): 0.568 (0.253-0.942)
half-life ([1]; female, human, in vivo, po, 200 mg, AS elimination half-life): ~9.1 min
CL/F apparent clearance of AS, bootstrap mean (95% CI) ([1]; human, in vivo, po, 200 mg): 904 (788-1045) L/h
CL/F: apparent clearance of AS, estimate ([1]; human, in vivo, po, 200 mg): 895 L/h
Compound: C[C@H]1[C@H](OC(=O)CCC(=O)O)O[C@@H]2O[C@@]3(C)CC[C@H]4[C@H](C)CC[C@@H]1[C@@]24OO3 [AS, artesunate]
pKa [2]: 4.6
Solubility of the free acid form [3]: 168.2 µg/mL

RV - variance (residual variability), bootstrap mean (95% CI) ([1]; additive model for log-transformed plasma concentrations, 1000 bootstrap runs): 0.174 (0.129-0.226)
RV - variance (residual variability), estimate ([1]; additive model for log-transformed plasma concentrations, final model): 0.174
CLM/F apparent clearance of DHA, bootstrap mean (95% CI) ([1]; after 200 mg oral AS, 1000 bootstrap runs, value without the pregnancy covariate (non-pregnant)): 64.2 (55.1-75.2) L/h
DHA volume of distribution adjusted for the median weight of the pregnancy and control groups ([1]; after 200 mg oral AS, current analysis): 1.58 L/kg
CLM/F: apparent clearance of DHA, estimate ([1]; after 200 mg oral AS, final model NONMEM estimate, value without the pregnancy covariate (non-pregnant)): 64.0 L/h
Vd/F ([1]; female, human, plasma, po, 200 mg, after 200 mg oral AS, 1000 bootstrap runs, read-out: V3/F apparent volume of distribution of DHA, bootstrap mean (95% CI)): 92.1 L
Vd/F ([1]; female, human, plasma, po, 200 mg, after 200 mg oral AS, final model NONMEM estimate, read-out: V3/F: apparent volume of distribution of DHA, estimate): 91.4 L
half-life ([1]; female, human, plasma, po, 200 mg, after 200 mg oral AS, non-pregnant, read-out: DHA elimination half-life, non-pregnant subjects): 59 min
half-life ([1]; female, human, plasma, po, 200 mg, after 200 mg oral AS, pregnant, read-out: DHA elimination half-life, pregnant subjects): 45 min
IIV - CLM/F, variance, bootstrap mean (95% CI) ([1]; interindividual variability, 1000 bootstrap runs): 0.0711 (0.031-0.113)
IIV - CLM/F, variance (%CV), estimate [1, 7]: 0.0802 (28.3)
IIV - V3/F, variance (%CV), estimate [1, 7]: 0.0790 (28.1)
PREG on CLM/F, bootstrap mean (95% CI) ([1]; pregnant vs non-pregnant women, 1000 bootstrap runs): 0.427 (0.197-0.723)
PREG on CLM/F: factor of proportional increase in CLM/F associated with pregnancy, estimate ([1]; pregnant vs non-pregnant women, final model NONMEM estimate): 0.423
Pregnancy-associated trend towards increased DHA volume of distribution ([1]; pregnant vs non-pregnant, significant (p < 0.05) only in first forward addition step, not retained in final model): approximately 37%
DHA clearance in pregnant patients, estimate of the present analysis ([1]; pregnant, after 200 mg oral AS): 91 L/h
Compound: C[C@H]1[C@@H](O)O[C@@H]2O[C@@]3(C)CC[C@H]4[C@H](C)CC[C@@H]1[C@@]24OO3 [DHA, dihydroartemisinin]
Oral DHA clearance ([4]; oral AS 4 mg/kg/day for three days with atovaquone and proguanil, 95% CI 60 - 117 L/h): 88.5 L/h
DHA volume of distribution ([4]; oral AS 4 mg/kg/day, 95% CI 57 - 406 L): 231.5 L
DHA volume of distribution [5]: 1.33 L/kg
DHA volume of distribution [6]: 1.33 L/kg

Source: PMC3098207 (Malaria Journal, 2011)
